{
  "source": "ChEMBL document CHEMBL1139575",
  "about": "“Discovery and synthesis of a novel and selective drug-like P2X(1) antagonist” (Bioorg Med Chem Lett, 2005)",
  "key": {"P2X purinoceptor 3": {"molecular_target": "T1, P2X purinoceptor 3 (Homo sapiens, UniProt P56373)", "T1 sequence (P56373 whole entry)": "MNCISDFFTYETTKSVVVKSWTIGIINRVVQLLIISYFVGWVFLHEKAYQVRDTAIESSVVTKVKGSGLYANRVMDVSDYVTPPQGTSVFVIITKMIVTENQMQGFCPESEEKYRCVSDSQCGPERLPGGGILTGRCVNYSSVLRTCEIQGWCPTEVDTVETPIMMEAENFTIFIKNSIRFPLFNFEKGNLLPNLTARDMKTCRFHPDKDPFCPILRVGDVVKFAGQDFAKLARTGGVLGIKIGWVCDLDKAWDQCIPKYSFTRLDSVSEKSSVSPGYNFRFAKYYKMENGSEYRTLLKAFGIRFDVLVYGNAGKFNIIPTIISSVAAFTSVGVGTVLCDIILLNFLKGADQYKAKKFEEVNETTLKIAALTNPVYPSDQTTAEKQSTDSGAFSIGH", "test": "Inhibitory concentration against human P2X purinoceptor 3 (hP2X3) expressed in CHO-K1 cells", "format": "functional, cell-based"}, "P2X purinoceptor 2": {"molecular_target": "T2, P2X purinoceptor 2 (Homo sapiens, UniProt Q9UBL9)", "T2 sequence (Q9UBL9 whole entry)": "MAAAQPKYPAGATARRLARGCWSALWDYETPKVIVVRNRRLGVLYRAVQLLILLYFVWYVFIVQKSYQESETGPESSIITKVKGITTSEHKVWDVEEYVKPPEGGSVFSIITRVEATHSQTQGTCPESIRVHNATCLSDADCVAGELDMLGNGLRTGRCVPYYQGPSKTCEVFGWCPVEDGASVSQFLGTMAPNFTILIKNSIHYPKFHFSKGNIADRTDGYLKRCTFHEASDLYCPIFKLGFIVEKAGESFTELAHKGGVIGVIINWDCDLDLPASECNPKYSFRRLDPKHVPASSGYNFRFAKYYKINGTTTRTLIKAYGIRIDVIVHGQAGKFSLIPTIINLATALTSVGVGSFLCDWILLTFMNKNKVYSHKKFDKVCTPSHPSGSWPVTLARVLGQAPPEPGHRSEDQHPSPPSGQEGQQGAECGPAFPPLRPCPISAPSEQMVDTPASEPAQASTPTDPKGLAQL", "test": "Inhibitory concentration against human P2X purinoceptor 2 (hP2X2) expressed in 1321N1 astrocytoma cells", "format": "functional, cell-based"}, "P2X purinoceptor 1": {"molecular_target": "T3, P2X purinoceptor 1 (Homo sapiens, UniProt P51575)", "T3 sequence (P51575 whole entry)": "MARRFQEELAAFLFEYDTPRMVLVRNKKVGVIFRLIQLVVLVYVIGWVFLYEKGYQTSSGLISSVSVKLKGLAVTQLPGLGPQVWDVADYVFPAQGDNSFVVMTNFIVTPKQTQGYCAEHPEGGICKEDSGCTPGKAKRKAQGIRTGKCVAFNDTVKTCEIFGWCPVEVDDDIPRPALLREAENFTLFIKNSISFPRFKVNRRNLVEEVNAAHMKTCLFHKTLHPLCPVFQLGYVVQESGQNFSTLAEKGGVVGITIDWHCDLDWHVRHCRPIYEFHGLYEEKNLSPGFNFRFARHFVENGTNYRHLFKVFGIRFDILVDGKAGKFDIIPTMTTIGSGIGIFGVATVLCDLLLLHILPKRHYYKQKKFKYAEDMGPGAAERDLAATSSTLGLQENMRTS", "test": "Inhibitory concentration against human P2X purinoceptor 1 (hP2X1) expressed in CHO-K1 cells", "format": "functional, cell-based"}, "[1]": {"test": "Inhibitory concentration against P2X purinoceptor 2/3 expressed in 1321N1 astrocytoma cells", "format": "functional, cell-based, Homo sapiens"}},
  "data": [
    {"smiles": "O=C(N[C@H](Cc1cscn1)C(=O)N[C@@H](CC1CCCCC1)[C@@H](O)[C@@H](O)C1CC1)c1nc2ccccc2[nH]1", "values": [
      {"measurement": "IC50", "setting": "P2X purinoceptor 3", "result": "> 100", "unit": "µM"},
      {"measurement": "IC50", "setting": "P2X purinoceptor 2", "result": "> 100", "unit": "µM"},
      {"measurement": "IC50", "setting": "P2X purinoceptor 1", "result": 3, "unit": "µM"},
      {"measurement": "IC50", "setting": "[1]", "result": "> 100", "unit": "µM"}
    ]}
  ]
}
